From article PMC12254266, “Multicolored sequential resonance energy transfer for detection of simultaneous ligand binding at G protein-coupled receptors” (Nature Communications, 2025)
“And” between values parts separate entries of the source, which are not always exact repeats. Identical values can stand only once.

Experiments:
Nluc-FFA1 [1] = target: T1, Nluc-FFA1 (Homo sapiens, UniProt O14842); assay: NanoBRET binding (saturation, competition, kinetics) at N terminal Nluc tagged FFA1; conditions: Nluc-FFA1; for Kd: read-out: Kd, saturation BRET binding
T1 construct: expressed in transfected cells
Description: (§1) Nluc-FFA1 or FFA1-Nluc Flp-In T-REx 293 cells were plated at 50,000 cells per well in poly-D-lysine coated white 96-well plates. Cells were cultured for 24 h in the plate before medium was replaced with medium containing 100 ng/mL of doxycycline to induce receptor expression. After culturing for a further 24 h, medium was removed, cells were washed with HBSS and incubated in HBSS for 30 min. To start the assay, NanoGlo substrate (Promega, N1110) was added to the cells at a 1:800 final dilution and incubated for 10 min at 37 °C. For endpoint assays, including both saturation and competition binding, test ligands were then added, including both fluorescent and unlabelled competing ligands as indicated, and plates incubated for a further 5 min at 37 °C. NanoBRET was then quantified in a CLARIOstar microplate reader (BMG Labtech) by measuring luminescent emission with the monochrometer set for the Nluc donor at 450–60 nm, and acceptor luminescent emission 540–60 nm (NBD), 600–80 nm (Cy3.5) or 690–100 nm (SulfoCy5), depending on which fluorophore was being tested. The acceptor/donor BRET ratio was then taken as a measure of fluorophore binding. For kinetic on then off NanoBRET experiments plates were washed the same way and substrate was added to the same concentration. However, 10 min after substrate was added plates were inserted into the CLARIOstar microplate reader set to 25 °C to take repeated measurements of luminescent emission for both the donor and the acceptor fluorophore being used. After 5 min of background measurements, the indicated concentration of fluorescent ligand was added using the plate reader injector and luminescent emission was monitored for ~10 min before the reader was paused to manually add a high concentration of appropriate competing ligand to initiate dissociation. The plate was returned to the reader and luminescence measurements were continued for a further 30 min to monitor dissociation of the fluorescent ligand. For kinetic experiments using multiple concentrations of fluorescent ligand, cells were placed in the plate reader immediately after the addition of Nano-Glo substrate and luminescent measurements were taken. After 5 min, the reader was paused to add the indicated concentrations of fluorescent ligand, before measurements were continued. To set non-specific binding for kinetic experiments, the indicated competing ligand was added 5 min before the addition of the fluorescent ligand.

FFA1 = FFA1 (Homo sapiens, UniProt O14842); assay: Ca2+ mobilisation (Fura2) in Flp-In T-REx 293 cells expressing Nluc-FFA1, FFA1-Nluc or untagged FFA1; assay type: cell-based; design: expressed in transfected cells
Description: Nluc-FFA1, FFA1-Nluc or untagged FFA1 Flp-In T-REx 293 cells were plated at 50,000 cells per well in poly-D-lysine coated black clear bottom 96-well plates. Cells were then cultured for 24 h until reaching confluency before culture medium was replaced with medium containing 100 ng/mL of doxycycline to induce receptor expression. Cells were cultured for a further 24 h before the assay. On the day of the assay culture medium was removed and replaced with medium containing 3 μM Fura2-AM Ca^2+ dye. […] Fura2 fluorescent emission at 520 nm following excitation with each of 340 and 380 nm was measured in regular intervals both before and after adding test compounds for a total of 90 s per well. Calcium responses were determined by taking the peak 340/380 ratio after first subtracting the ratios obtained prior to addition of test compound.

FFA1-Nluc = FFA1-Nluc (Homo sapiens, UniProt O14842); assay: NanoBRET binding (saturation, kinetics) at C terminal Nluc tagged FFA1; design: expressed in transfected cells; conditions: FFA1-Nluc, 95% confidence interval in parentheses; for Kd: read-out: Kd, saturation BRET binding; for BMax, saturation BRET binding: specific BRET
Description: as §1

Nluc-FFA1 [2] = target: T1, Nluc-FFA1; assay: DISCo-BRET with TUG-2591 and TUG-2597 at N terminal Nluc tagged FFA1; assay type: binding; conditions: Figure 3F, 10 nM, technical duplicate
Description: Nluc-FFA1 or FFA1-Nluc Flp-In T-REx 293 cells were plated at 50,000 cells per well in poly-D-lysine coated white 96-well plates. Cells were cultured for 24 h in the plate before medium was replaced with medium containing 100 ng/mL of doxycycline to induce receptor expression. After culturing for a further 24 h, culture medium was removed, cells washed with HBSS and incubated in HBSS for 30 min. For all DISCo-BRET formats Nano-Glo substrate was then added at a 1:800 final dilution and cells incubated for 10 min. Following substrate addition experimental set up different among the three formats: endpoint, spectra scan, and kinetics.
For endpoint experiments all fluorescent and unlabelled ligands were added to the cells and incubated for 5 min at 37 °C. Luminescent emission was then measured using a CLARIOstar microplate reader with monochromator set at 450–60 nm (Nluc), 540−60 nm (NBD) and 690–100 nm (SulfoCy5). BRET ratios were then calculated as either SulfoCy5 emission divided by NBD emission, SulfoCy5 emission divided by Nluc emission, or NBD emission divided by Nluc emission.
For spectra scan experiments all indicated fluorescent and unlabelled ligands were added to the cells and cells incubated for 5 min at 37 °C. Luminescence emissions were then measured from each well of the plate from 440 nm – 740 nm with a 5 nm resolution using a CLARIOstar microplate. […]

[3] = 95% confidence interval in parentheses
[4] = log[Ligand] -5.5, single technical replicates
[5] = log[Ligand] -6, single technical replicates
[6] = log[Ligand] -6.5, single technical replicates
[7] = log[Ligand] -7, single technical replicates
[8] = log[Ligand] -8, single technical replicates

T1 sequence (O14842 whole entry): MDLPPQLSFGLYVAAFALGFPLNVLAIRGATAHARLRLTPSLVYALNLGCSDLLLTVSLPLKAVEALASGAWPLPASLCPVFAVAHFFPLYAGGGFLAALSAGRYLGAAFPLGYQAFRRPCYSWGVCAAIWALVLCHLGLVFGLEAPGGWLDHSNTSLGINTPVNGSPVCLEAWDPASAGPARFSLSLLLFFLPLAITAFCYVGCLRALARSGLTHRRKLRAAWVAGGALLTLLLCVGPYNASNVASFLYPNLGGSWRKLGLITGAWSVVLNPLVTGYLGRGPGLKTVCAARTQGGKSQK
Sequence of FFA1-Nluc (O14842 whole entry): as above
Sequence of FFA1 (O14842 whole entry): as above

Row | SMILES | Kd (Nluc-FFA1 [1]; [3]) | Ca2+ Response as a % of T360 Response (FFA1; [4]) | Ca2+ Response as a % of T360 Response (FFA1; [5]) | Ca2+ Response as a % of T360 Response (FFA1; [6]) | Ca2+ Response as a % of T360 Response (FFA1; [7]) | Ca2+ Response as a % of T360 Response (FFA1; [8]) | Kd (FFA1-Nluc) | BMax, saturation BRET binding (FFA1-Nluc) | other results
1 | Cc1cc(OCCOCCNC(=O)CCCCCN2\C(=C/C=C/C=C/C3=[N+](C)c4ccc(S(=O)(=O)[O-])cc4C3(C)C)C(C)(C)c3ccccc32)ccc1-c1cccc(COc2ccc(CCC(=O)O)c(F)c2)c1 [TUG-2355] | 520 nM | 47.56% and 39.50% and 44.99% and 26.68% and 35.66% and 31.10% and 60.09% and 62.76% and 60.18% | 6.20% and 5.86% and 4.09% and -1.05% and -0.0134% and -0.48% and -1.46% and 7.50% and -1.37% | 0.81% and -1.43% and -1.40% and -2.16% and -1.38% and 1.40% and -3.04% and 3.51% and -1.19% | 1.12% and 1.72% and 2.65% and -2.38% and -2.12% and 0.39% and -2.69% and 2.22% and 0.50% | -2.32% and 0.08% and 1.34% and 0.25% and -0.22% and -1.88% and -1.89% and 3.89% and -2.52% | 240 nM | 0.022 (0.015−0.038) | Specific BRET (Nluc-FFA1 [1]; [TUG-2355] 1000 nM, technical triplicates): 0.0476 and 0.0570 and 0.0671 and 0.0472 and 0.0443 and 0.0544; BMax, saturation BRET binding (Nluc-FFA1 [1]; specific BRET, 95% confidence interval in parentheses): 0.083 (0.060−0.14); pEC50 (FFA1; Ca2+ data, mean±SEM, NR = No response): 5.43±0.06; Ca2+ Response as a % of T360 Response (FFA1; FFA1-Nluc cells, log[ligand] -7, technical replicates): -1.03% and 4.29% and 0.96%; Ca2+ Response as a % of T360 Response (FFA1; FFA1-Nluc cells, log[ligand] -7.5, technical replicates): 1.35% and 1.54% and 1.46% and 0.43% and 0.51% and 0.58%; Ca2+ Response as a % of T360 Response (FFA1; FFA1-Nluc, log[TUG-2355] -5, technical triplicates): 62.07 % of T360 Response and 53.90 % of T360 Response and 49.62 % of T360 Response and 44.94 % of T360 Response and 53.23 % of T360 Response and 56.24 % of T360 Response and 74.69 % of T360 Response and 72.06 % of T360 Response; Ca2+ Response as a % of T360 Response (FFA1; Nluc-FFA1, log[TUG-2355] -5, technical triplicates): 78.72 % of T360 Response and 80.47 % of T360 Response and 78.90 % of T360 Response and 53.23 % of T360 Response and 56.24 % of T360 Response and 77.92 % of T360 Response and 57.96 % of T360 Response and 82.25 % of T360 Response; Ca2+ Response as a % of T360 Response (FFA1; Nluc-FFA1 cells, log[ligand] -7, technical replicates): 1.27% and 0.43% and 0.51% and 0.58% and 0.96% and 2.49%; Ca2+ Response as a % of T360 Response (FFA1; Nluc-FFA1 cells, log[ligand] -7.5, technical replicates): 2.49% (2×) and 2.03%; Ca2+ Response as a % of T360 Response (FFA1; Nluc-FFA1 cells, log[ligand] -8, technical replicates): 0.05% and 1.00% and 0.97% and 1.13%; Ca2+ Response as a % of T360 Response (FFA1; log[Ligand] -4.5, single technical replicates): 81.14% and 82.71% and 91.68% and 50.63% and 60.58% and 55.59% and 78.02% and 80.44% and 71.73%; Ca2+ Response as a % of T360 Response (FFA1; log[Ligand] -5, single technical replicates): 78.72% and 80.47% and 78.90% and 53.23% and 56.24% and 77.92% and 57.96% and 82.25%; EMax (FFA1; percentage of response to 10 μM T360, NR = No response): 87±10%
2 | Cc1cc(OCCOCCNC(=O)CCCCC[N+]2=C(/C=C/C=C3/N(C)c4ccc5ccccc5c4C3(C)C)C(C)(C)c3c2ccc2ccccc32)ccc1-c1cccc(COc2ccc(CCC(=O)O)c(F)c2)c1.O=C([O-])C(F)(F)F [TUG-2287] | 200 nM | 17.83% and 27.69% and 20.05% and -0.41% and 1.34% and 0.65% | 5.00% and 8.24% and 2.11% and -0.20% and 0.45% and 0.71% | 1.48% and 8.34% and 1.53% and -0.18% and -0.52% and -0.47% | 0.96% and 2.49% and 1.27% and 0.43% and 0.51% and 0.58% | 2.24% and 3.57% and 0.05% and 1.00% and 0.97% and 1.13% | 25 nM | 0.007 (0.005−0.01) | activity in Ca2+ assays (FFA1; in words): no measurable activity; Ca2+ Response as a % of T360 Response (FFA1; log[Ligand] -9, single technical replicates): 1.37% and 5.16% and 0.91% and -0.52% and -0.36% and 0.88%
3 | Cc1cc(OCCCNC(=O)CCCN2\C(=C/C=C/C=C/C3=[N+](C)c4ccc(S(=O)(=O)[O-])cc4C3(C)C)C(C)(C)c3ccccc32)ccc1-c1cccc(COc2ccc(CCC(=O)O)c(F)c2)c1 [TUG-TUG-2591] |  |  |  |  |  |  |  |  | Area under the curve from luminecent emission, Total (Nluc-FFA1 [2]): 0.1968 and 0.1494 and 0.1776 and 0.1635 and 0.1742 and 0.2754
